Measured values as given in ChEMBL document CHEMBL1133756, “A potent aldose reductase inhibitor, (2S,4S)-6-fluoro-2', 5'-dioxospiro[chroman-4,4'-imidazolidine]-2-carboxamide (Fidarestat): its absolute configuration and interactions with the aldose reductase by X-ray crystallography” (J Med Chem, 2000).

Assays:
[1] = biological target: Aldo-keto reductase family 1 member B1 (Rattus norvegicus, UniProt P07943); test: Tested for in vitro inhibition activity against rat Aldose reductase (AR)
[2] = biological target: T1, Aldo-keto reductase family 1 member A1 (Homo sapiens, UniProt P14550); test: Tested for in vitro inhibition activity against human aldehyde reductase (AHR)
T1 sequence (P14550 whole entry): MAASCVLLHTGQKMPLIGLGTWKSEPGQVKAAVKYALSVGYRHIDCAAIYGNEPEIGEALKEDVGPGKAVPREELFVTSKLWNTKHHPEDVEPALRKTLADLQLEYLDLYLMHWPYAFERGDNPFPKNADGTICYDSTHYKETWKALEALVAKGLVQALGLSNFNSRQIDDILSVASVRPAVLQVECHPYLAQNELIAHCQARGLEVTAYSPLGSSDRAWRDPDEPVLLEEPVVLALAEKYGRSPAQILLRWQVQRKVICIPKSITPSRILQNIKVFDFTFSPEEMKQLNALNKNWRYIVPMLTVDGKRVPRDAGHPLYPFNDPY

[3] = biological target: Aldo-keto reductase family 1 member B1 (Homo sapiens, UniProt P15121); test: Tested for in vitro inhibition activity against human Aldose reductase (human AR)

IC50 [1] [nM]	IC50 [2] [nM]	IC50 [3] [nM]	Compound
570			NC(=O)[C@H]1C[C@]2(NC(=O)NC2=O)c2cc(F)ccc2O1
35	1200	9	NC(=O)[C@@H]1C[C@]2(NC(=O)NC2=O)c2cc(F)ccc2O1
